In patent US9120728B2, “Modulators of cortical dopaminergic- and NMDA-receptor-mediated glutamatergic neurotransmission” (INTEGRATIVE RESEARCH LABORATORIES SWEDEN AB, priority 2011, dated 2015):
Counter-ions that a name gives are not always drawn.

Key:
drug-naive rats = assay: Effects on spontaneous locomotion (locomotor activity in drug-naive rats); type: in vivo, rat; settings: recorded for 60 minutes immediately after drug administration
Method: Prior art dopamine receptor antagonists are known to induce profound decrease in locomotor activity (catalepsy).
Behavioural activity is measured using eight Digiscan activity monitors (RXYZM (16) TAO, Omnitech Electronics, Columbus, Ohio, USA), connected to an Omnitech Digiscan analyzer and an Apple Macintosh computer equipped with a digital interface board (NB DIO-24, National Instruments, USA). Each activity monitor consists of a quadratic metal frame (W×L=40 cm×40 cm) equipped with photobeam sensors. During measurements of behavioural activity, a rat is put in a transparent acrylic cage (WxLxH, 40×40×30 cm) which in turn is placed in the activity monitor. Each activity monitor is equipped with three rows of infrared photobeam sensors, each row consisting of 16 sensors. Two rows are placed along the front and the side of the floor of the cage, at a 90° angle, and the third row is placed 10 cm above the floor to measure vertical activity. Photobeam sensors are spaced 2.5 cm apart. Each activity monitor is fitted in an identical sound and light attenuating box containing a weak house light and a fan.
The computer software is written using object oriented programming (LabVIEW®, National instruments, Austin, Tex., USA).
Behavioural data from each activity monitor, representing the position (horizontal center of gravity and vertical activity) of the animal at each time, are recorded at a sampling frequency of 25 Hz and collected using a custom written LABView™ application. The data from each recording session are stored and analyzed with respect to distance traveled. Each behavioural recording session lasts 60 min, starting approximately 4 min after the injection of test compound. Similar behavioural recording procedures are applied for drug-naïve and drug pre-treated rats. Rats pre-treated with d-amphetamine are given a dose of 1.5 mg/kg i.p. 10 min before the recording session in the activity monitor. Rats pre-treated with MK-801 are given a dose of 0.7 mg/kg i.p. 90 min before the recording session in the activity monitor. The results are presented as counts/60 minutes, or counts/30 minutes, in arbitrary length units. Statistical comparisons are carried out using Student's t-test against the control group. In MK-801 or amphetamine pre-treated animals, statistical comparisons are made against the MK801 or d-amphetamine controls, respectively.

[1] = test system: DOPAC (3,4-dihydroxyphenylacetic acid) in the rat striatum; assay: Increase of DOPAC (3,4-dihydroxyphenylacetic acid) in the rat striatum after systemic administration; type: in vivo; settings: sc, estimated ED50 on increase of DOPAC in rat striatum, dose range 0-100 μmol/kg s.c., curve fitting
Excerpt: The increased turnover of dopamine in the terminal areas of the ascending dopaminergic projections of the mammalian brain can be illustrated by measuring of changes in biochemical indices in the brain with the characteristic features of dopamine antagonists, e.g. producing increases in concentrations of dopamine metabolites such as 3,4-dihydroxyphenyl-acetic acid (DOPAC) in the striatum.
After the behavioural activity sessions, the rats are decapitated and their brains rapidly taken out and put on an ice-cold petri-dish. The limbic forebrain, the striatum, the frontal cortex and the remaining hemispheral parts of each rat are dissected and frozen. Each brain part is subsequently analyzed with respect to its content of monoamines and their metabolites.
The monoamine transmitter substances (NA (noradrenaline), DA (dopamine), 5-HT (serotonin)) as well as their amine (NM (normethanephrine), 3-MT (3-methoxytyramine)) and acid (DOPAC (3,4-dihydroxyphenylacetic acid), 5-HIAA (5-hydroxyindoleacetic acid), HVA (homovanillic acid)) metabolites are quantified in brain tissue homogenates by HPLC separations and electrochemical detection
The analytical method is based on two chromatographic separations dedicated for amines or acids. Two chromatographic systems share a common auto injector with a 10-port valve and two sample loops for simultaneous injection on the two systems. Both systems are equipped with a reverse phase column (Luna C18(2), dp 3 μm, 50×2 mm i.d., Phenomenex) and electrochemical detection is accomplished at two potentials on glassy carbon electrodes (MF-1000, Bioanalytical Systems, Inc.). The column effluent is passed via a T-connection to the detection cell or to a waste outlet. This is accomplished by two solenoid valves, which block either the waste or detector outlet. By preventing the chromatographic front from reaching the detector, better detection conditions are achieved. The aqueous mobile phase (0.4 ml/min) for the acid system contains citric acid 14 mM, sodium citrate 10 mM, MeOH 15% (v/v) and EDTA 0.1 mM. Detection potentials relative to Ag/AgCl reference are 0.45 and 0.60V. […] Detection potentials relative to Ag/AgCl reference are 0.45 and 0.65V.
ED50 value for the increase of DOPAC in striatum is calculated by curve fitting. The evaluation is based on 40 animals over the dose range 0, 3.7, 11, 33 and 100 μmol/kg s.c. in two combined experiments. The DOPAC levels are normalised to control and fitted by least square minimization to the function “End-(End-Control)/(1+(dose/ED50)^slope)”. The four parameters (Control, End, ED50 and Slope) are fitted with the restrictions: ED50>0, 0.5<Slope<3, 350<End<400% of control. To estimate confidence levels for the parameters, the fit is repeated 100 times with a random evenly distributed squared weight (0 to 1) for every measurement value. Presented ED50-ranges cover 95% of these values.

[2] = test system: d-amphetamine pre-treated rats; assay: Reduction of amphetamine-induced hyper-locomotion; type: in vivo; settings: Rattus norvegicus; rats pre-treated with d-amphetamine 1.5 mg/kg i.p.; test compound 0-100 μmol/kg s.c.; distance during last 45 minutes of one hour
Excerpt: The increase in activity after treatment with d-amphetamine is a standard model of hyperdopaminergia. In this model, dopaminergic neurotransmission is increased by systemic administration of d-amphetamine at a dose that is sufficiently high to produce a large increase in locomotor activity. The ability of a compound to antagonize this hyperactivity reflects anti-dopaminergic properties. Furthermore, antagonism of d-amphetamine induced hyperactivity is widely used as a standard assay of antipsychotic activity (see Psychopharmacology 4th Generation of progress Chapter 68, p 793-795).
(§1) Behavioural activity is measured using eight Digiscan activity monitors (RXYZM (16) TAO, Omnitech Electronics, Columbus, Ohio, USA), connected to an Omnitech Digiscan analyzer and an Apple Macintosh computer equipped with a digital interface board (NB DIO-24, National Instruments, USA). […]
(§2) Behavioural data from each activity monitor, representing the position (horizontal center of gravity and vertical activity) of the animal at each time, are recorded at a sampling frequency of 25 Hz and collected using a custom written LABView™ application. The data from each recording session are stored and analyzed with respect to distance traveled. […]
ED50 value for reduction of amphetamine-induced hyper-locomotion is calculated by curve fitting. […]

MK-801 pre-treated rats = assay: Reduction of MK-801-induced hyper-locomotion; type: in vivo; settings: Rattus norvegicus; MK-801 0.7 mg/kg i.p. 90 minutes before test compound; locomotor activity between 45 and 60 minutes after administration; 0-100 μmol/kg s.c.
Excerpt: Reduction of MK-801-Induced Hyper-Locomotion Another animal model of antipsychotic activity is based on administration of the glutamate antagonist MK-801. Glutamate antagonists (i.e. NMDA antagonists), can induce psychoses in man (see Psychopharmacology, 4th Generation of progress Chapter 101, p. 1205 and 1207) and induce behavioural aberrations in animals. Thus, the ability of a drug to affect schizophrenia and psychotic states can be measured using behavioural models based on experimentally-induced hypoglutamatergic states. In this study the NMDA antagonist MK-801 (0.7 mg/kg i.p.) was used to create a hypoglutamatergic state where the rats display abnormal, hyperactive behaviour.
as §1, §2

Row | SMILES | melting point [°C] | Locomotor activity (drug-naive rats; 3.7 μmol/kg) [counts/60 min] | Locomotor activity (drug-naive rats; 11 μmol/kg) [counts/60 min] | Locomotor activity (drug-naive rats; 33 μmol/kg) [counts/60 min] | ED50 [1] [µmol/kg] | other results
1 | CCCCNCCOc1cc(F)cc(S(C)(=O)=O)c1 [Example 2, N-[2-(3-fluoro-5-methylsulfonyl-phenoxy)ethyl]butan-1-amine] | – | 13941 | 8617 | 6325 | 4.2 | –
2 | CCCCNCCOc1cc(F)cc(S(C)(=O)=O)c1 (as salt: hydrochloric acid salt) [Example 2, N-[2-(3-fluoro-5-methylsulfonyl-phenoxy)ethyl]butan-1-amine] | 204 | – | – | – | – | –
3 | CCNCCOc1cc(F)cc(S(C)(=O)=O)c1 (as salt: hydrochloric acid salt) [Example 3, N-ethyl-2-(3-fluoro-5-methylsulfonyl-phenoxy)ethanamine] | 200.8 to 201.1 | – | – | – | – | –
4 | CCCNCCOc1cc(Cl)cc(S(C)(=O)=O)c1 [Example 12, N-[2-(3-chloro-5-methylsulfonyl-phenoxy)ethyl]propan-1-amine] | – | 14414 | 12740 | 7826 | 10.5 | –
5 | CCCN(C)CCOc1cc(F)cc(S(C)(=O)=O)c1 [Example 4, N-[2-(3-fluoro-5-methylsulfonyl-phenoxy)ethyl]-N-methyl-propan-1-amine] | – | 11435 | 10025 | 12829 | 28.1 | ED50 [2]: 69 µmol/kg
6 | CS(=O)(=O)c1cc(F)cc(OCCN2CCCCC2)c1 [Example 10, 1-[2-(3-fluoro-5-methylsulfonyl-phenoxy)ethyl]piperidine] | – | 11979 | 9344 | 8144 | 14.5 | –
7 | CS(=O)(=O)c1cc(F)cc(OCCNC2CCC2)c1 [Example 8, N-[2-(3-fluoro-5-methylsulfonyl-phenoxy)ethyl]cyclobutanamine] | – | 10319 | 12888 | 12872 | 36 | ED50 (MK-801 pre-treated rats): 40 µmol/kg

Continued, in another order:

Row | melting point [°C] | SMILES | Locomotor activity (drug-naive rats; 3.7 μmol/kg) [counts/60 min] | Locomotor activity (drug-naive rats; 11 μmol/kg) [counts/60 min] | Locomotor activity (drug-naive rats; 33 μmol/kg) [counts/60 min] | ED50 [1] [µmol/kg] | other results
8 | 202 | CS(=O)(=O)c1cc(F)cc(OCCNC2CCC2)c1 (as salt: hydrochloric acid salt) [Example 8, N-[2-(3-fluoro-5-methylsulfonyl-phenoxy)ethyl]cyclobutanamine] | – | – | – | – | –
9 | 166.5 | CCC(C)NCCOc1cc(F)cc(S(C)(=O)=O)c1 (stereo not drawn) (as salt: hydrochloric acid salt) [Example 5, N-[2-(3-fluoro-5-methylsulfonyl-phenoxy)ethyl]butan-2-amine] | – | – | – | – | –
10 | 128 to 130 | CCCN(C)CCOc1cc(F)cc(S(C)(=O)=O)c1 (as salt: hydrochloric acid salt) [Example 4, N-[2-(3-fluoro-5-methylsulfonyl-phenoxy)ethyl]-N-methyl-propan-1-amine] | – | – | – | – | –
11 | 173 | CC(C)NCCOc1cc(F)cc(S(C)(=O)=O)c1 (as salt: hydrochloric acid salt) [Example 9, N-[2-(3-fluoro-5-methylsulfonyl-phenoxy)ethyl]propan-2-amine] | – | – | – | – | –
12 | 195 to 197 | CCCNCCOc1cc(Cl)cc(S(C)(=O)=O)c1 (as salt: hydrochloric acid salt) [Example 12, N-[2-(3-chloro-5-methylsulfonyl-phenoxy)ethyl]propan-1-amine] | – | – | – | – | –
13 | 172.3 | CCN(CC)CCOc1cc(F)cc(S(C)(=O)=O)c1 (as salt: hydrochloric acid salt) [Example 11, N,N-diethyl-2-(3-fluoro-5-methylsulfonyl-phenoxy)ethanamine] | – | – | – | – | –
14 | 207.5 | CS(=O)(=O)c1cc(F)cc(OCCNC2CCCC2)c1 (as salt: hydrochloric acid salt) [Example 6, N-[2-(3-fluoro-5-methylsulfonyl-phenoxy)ethyl]cyclopentanamine] | – | – | – | – | –
15 | 194.6 | CS(=O)(=O)c1cc(F)cc(OCCN2CCCCC2)c1 (as salt: hydrochloric acid salt) [Example 10, 1-[2-(3-fluoro-5-methylsulfonyl-phenoxy)ethyl]piperidine] | – | – | – | – | –
16 | 190.2 | CCC(C)(C)NCCOc1cc(F)cc(S(C)(=O)=O)c1 (as salt: hydrochloric acid salt) [Example 7, N-[2-(3-fluoro-5-methylsulfonyl-phenoxy)ethyl]-2-methyl-butan-2-amine] | – | – | – | – | –
